Measurements as given in US20100196355A1, “Immunophilin Ligands and Methods for Modulating Immunophilin and Calcium Channel Activity” (Wyeth, priority 2007, published 2010).

Experiments:
His6-tagged FKBP52 = target: T1, His6-tagged FKBP52 (Homo sapiens, UniProt Q02790); assay: [3H]-FK506 binding on Ni-chelated FLASH plate
T1 construct: made in house
T1 sequence (Q02790 1-459): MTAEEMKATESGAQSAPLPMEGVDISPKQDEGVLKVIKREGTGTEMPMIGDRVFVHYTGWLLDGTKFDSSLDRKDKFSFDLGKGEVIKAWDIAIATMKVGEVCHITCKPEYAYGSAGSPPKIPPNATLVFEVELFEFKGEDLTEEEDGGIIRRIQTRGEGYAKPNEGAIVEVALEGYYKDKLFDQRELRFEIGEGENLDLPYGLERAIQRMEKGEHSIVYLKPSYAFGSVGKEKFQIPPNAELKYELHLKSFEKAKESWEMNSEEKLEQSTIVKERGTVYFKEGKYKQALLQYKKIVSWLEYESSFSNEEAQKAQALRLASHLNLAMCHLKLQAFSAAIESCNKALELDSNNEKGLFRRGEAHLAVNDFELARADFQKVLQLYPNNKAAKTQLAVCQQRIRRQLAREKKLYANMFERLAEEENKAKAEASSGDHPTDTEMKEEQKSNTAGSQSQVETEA
Protocol: Reactions were carried out in triplicate at 25° C. for 30 min. Kd were calculated using methods described by Carreras (Anal. Biochem. 298, 57-61 (2001)).

[1] = system: rat cortical neuron cultures; assay: Transcriptional profiling of cortical neuron cultures; format: cell-based; conditions: 10 μM
Protocol: Cortical neuron cultures were prepared from E16 rat embryos. After plating for 24 hrs, cultures were treated with 10 μM immunophilin ligands and the corresponding vehicle. After treatment for 4 hrs, 12 hrs, 24 hrs and 48 hrs, cells were lysed. Total RNA from each sample was extracted with the RNEASY® Mini Kit (QIAGEN®). Double stranded cDNA was synthesized from 2 μg of each RNA sample using the […]® System (INVITROGEN®), purified, transcribed in vitro to prepare biotinylated cRNA using T7 RNA polymerase in the presence of biotin labeled UTP and CTP. The fragmented cRNAs were hybridized to a Rat Genome 230 2.0 […]® (AFFYMETRIX®, Santa Clara, Calif.) as recommended by the manufacturer. Hybridized arrays were stained according to manufacture protocols on a Fluidics Station 450 and subsequently scanned on an AFFYMETRIX® scanner 3000. The raw data was generated using AFFYMETRIX® MAS 5.0 Software. Transcriptional profiling data were analyzed in Ingenuity.

`CO[C@H]1C[C@@H]2CC[C@@H](C)[C@@](O)(O2)C(=O)C(=O)N2CCCCC2C(=O)O[C@H]([C@H](C)C[C@@H]2CC[C@@H](O)[C@H](OC)C2)CC(=O)[C@H](C)/C=C(\C)[C@@H](O)[C@@H](OC)C(=O)[C@H](C)C[C@H](C)C2CC[C@H](/C=C/1C)ON2c1ccccc1` (stereo partly drawn) [Rapamycin analogue II, 9,27-dihydroxy-3-{2-[4-hydroxy-3-methoxycyclohexyl]-1-methylethyl}-10,21-dimethoxy-6,8,12,14,20,26-hexamethyl-37-phenyl-4,9,10,12,13,14,15,16,17,18,21,22,23,24,25,26,27,32,33,34,34a-henicosahydro-3H-23,27-epoxy-18,15-(epoxyimino)pyrido[2,1-c][1,4]oxazacyclohentriacontine-1,5,11,28,29(6H, 31H)-pentone] was tested, and the Kd (His6-tagged FKBP52) was 0.48 ± 0.04 nM, the “fold change vs DMSO, ACTA1” value ([1]; ACTA1) was −1.6 fold and the “fold change vs DMSO, ACTA2” value ([1]; ACTA2) was 1.37 fold. The “fold change vs DMSO, AKAP5” value ([1]; AKAP5) was −1.5 fold, the “fold change vs DMSO, ASPH” value ([1]; ASPH) was −3.27 fold and the “fold change vs DMSO, ATP2A2” value ([1]; ATP2A2) was 2 fold. The “fold change vs DMSO, ATP2B1” value ([1]; ATP2B1) was 1.81 fold, the “fold change vs DMSO, ATP2B3” value ([1]; ATP2B3) was −1.45 fold and the “fold change vs DMSO, ATP2C1” value ([1]; ATP2C1) was −1.32 fold. The “fold change vs DMSO, CABIN1” value ([1]; CABIN1) was 1.34 fold, the “fold change vs DMSO, CACNA1B” value ([1]; CACNA1B) was −1.45 fold and the “fold change vs DMSO, CACNA1C” value ([1]; CACNA1C) was 1.82 fold. For the same molecule, the “fold change vs DMSO, CACNA1D” value ([1]; CACNA1D) was −1.28 fold, the “fold change vs DMSO, CACNA2D1” value ([1]; CACNA2D1) was 5.73 fold and the “fold change vs DMSO, CACNB1” value ([1]; CACNB1) was −1.14 fold. For the same molecule, the “fold change vs DMSO, CACNG2” value ([1]; CACNG2) was −2 fold, the “fold change vs DMSO, CACNG3” value ([1]; CACNG3) was −2.46 fold and the “fold change vs DMSO, CALM1” value ([1]; CALM1) was −1.63 fold. The “fold change vs DMSO, CALM2” value ([1]; CALM2) was −1.33 fold, the “fold change vs DMSO, CALM3” value ([1]; CALM3) was −1.52 fold and the “fold change vs DMSO, CALR” value ([1]; CALR) was 1.19 fold. For the same molecule, the “fold change vs DMSO, CAMK1” value ([1]; CAMK1) was −1.43 fold, the “fold change vs DMSO, CAMK1G” value ([1]; CAMK1G) was −2.26 fold and the “fold change vs DMSO, CAMK2A” value ([1]; CAMK2A) was −4.13 fold. The “fold change vs DMSO, CAMK2B” value ([1]; CAMK2B) was −1.88 fold, the “fold change vs DMSO, CAMK2D” value ([1]; CAMK2D) was −1.48 fold and the “fold change vs DMSO, CAMK4” value ([1]; CAMK4) was −1.33 fold. The “fold change vs DMSO, CHP” value ([1]; CHP) was 1.54 fold, the “fold change vs DMSO, CREBBP” value ([1]; CREBBP) was 5.84 fold and the “fold change vs DMSO, CYP27B1” value ([1]; CYP27B1) was −1.38 fold. The “fold change vs DMSO, DHCR7” value ([1]; DHCR7) was 1.73 fold, the “fold change vs DMSO, DSCR1” value ([1]; DSCR1) was −1.82 fold and the “fold change vs DMSO, DSCR1L1” value ([1]; DSCR1L1) was −4.73 fold. The “fold change vs DMSO, EBP” value ([1]; EBP) was 1.32 fold, the “fold change vs DMSO, FDFT1” value ([1]; FDFT1) was 1.89 fold and the “fold change vs DMSO, FDPS” value ([1]; FDPS) was 2.07 fold. For the same molecule, the “fold change vs DMSO, GRIA1” value ([1]; GRIA1) was −2.16 fold, the “fold change vs DMSO, GRIA2” value ([1]; GRIA2) was 2.71 fold and the “fold change vs DMSO, GRIN1” value ([1]; GRIN1) was −2.8 fold. For the same molecule, the “fold change vs DMSO, GRIN2B” value ([1]; GRIN2B) was −1.57 fold, the “fold change vs DMSO, GRIN3A” value ([1]; GRIN3A) was −2.94 fold and the “fold change vs DMSO, GRINA” value ([1]; GRINA) was −1.2 fold. For the same molecule, the “fold change vs DMSO, HDAC5” value ([1]; HDAC5) was 1.8 fold, the “fold change vs DMSO, HDAC6” value ([1]; HDAC6) was −1.13 fold and the “fold change vs DMSO, HDAC7A” value ([1]; HDAC7A) was 1.27 fold. For the same molecule, the “fold change vs DMSO, HMGCR” value ([1]; HMGCR) was 2.26 fold, the “fold change vs DMSO, HTR3A” value ([1]; HTR3A) was −1.64 fold and the “fold change vs DMSO, IDI1” value ([1]; IDI1) was 2.85 fold. For the same molecule, the “fold change vs DMSO, ITPR3” value ([1]; ITPR3) was −1.93 fold, the “fold change vs DMSO, LSS” value ([1]; LSS) was 13.19 fold and the “fold change vs DMSO, MAPK1” value ([1]; MAPK1) was 1.38 fold. The “fold change vs DMSO, MAPK3” value ([1]; MAPK3) was −1.19 fold, the “fold change vs DMSO, MVD” value ([1]; MVD) was 1.81 fold and the “fold change vs DMSO, MVK” value ([1]; MVK) was 1.6 fold. The “fold change vs DMSO, MYH1” value ([1]; MYH1) was −2.17 fold, the “fold change vs DMSO, MYH6” value ([1]; MYH6) was −5.93 fold and the “fold change vs DMSO, MYH7” value ([1]; MYH7) was −5.88 fold. The “fold change vs DMSO, MYL6B” value ([1]; MYL6B) was −1.68 fold, the “fold change vs DMSO, NQO1” value ([1]; NQO1) was 1.64 fold and the “fold change vs DMSO, PMVK” value ([1]; PMVK) was 1.25 fold. For the same molecule, the “fold change vs DMSO, PPP3CB” value ([1]; PPP3CB) was −1.27 fold, the “fold change vs DMSO, PPP3CC” value ([1]; PPP3CC) was −1.27 fold and the “fold change vs DMSO, PPP3R1” value ([1]; PPP3R1) was −1.44 fold. The “fold change vs DMSO, PRKAG1” value ([1]; PRKAG1) was −1.24 fold, the “fold change vs DMSO, PRKAR1A” value ([1]; PRKAR1A) was −1.1 fold and the “fold change vs DMSO, PRKAR1B” value ([1]; PRKAR1B) was −3.18 fold. For the same molecule, the “fold change vs DMSO, PRKAR2A” value ([1]; PRKAR2A) was −1.23 fold, the “fold change vs DMSO, PRKAR2B” value ([1]; PRKAR2B) was −1.5 fold and the “fold change vs DMSO, RAP1B” value ([1]; RAP1B) was −1.33 fold. For the same molecule, the “fold change vs DMSO, SC5DL” value ([1]; SC5DL) was 1.94 fold, the “fold change vs DMSO, SQLE” value ([1]; SQLE) was 1.9 fold and the “fold change vs DMSO, TPM1” value ([1]; TPM1) was −2.83 fold. For the same molecule, the “fold change vs DMSO, TPM3” value ([1]; TPM3) was −1.99 fold, the “fold change vs DMSO, TRPC1” value ([1]; TRPC1) was −1.08 fold and the “fold change vs DMSO, TRPC3” value ([1]; TRPC3) was −1.95 fold. The “fold change vs DMSO, TRPC4” value ([1]; TRPC4) was −5.42 fold, the “fold change vs DMSO, TRPV6” value ([1]; TRPV6) was 1.73 fold and the “fold change, PLAU” value ([1]; plasminogen activator (PLAU)) was −10 fold.
